Measured values published in US9359367B2, “Tetrahydroquinazolinone derivatives as PARP inhibitors” (Lupin Limited, priority 2012, dated 2016).
pIC50: −log10 of the molar value.

Target: T1, PARP1 (Homo sapiens, UniProt P09874)
T1 construct: purchased BPS Bioscience
Assay: PARP1 Biochemical Assay (BPS Bioscience kit, chemiluminescence)
Conditions: histone-coated plate, biotinilated NAD+, 25° C. for 60 min, luminescence, read-out: PARP 1 inhibition IC50
In short: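 Human PARP1 (25–75 ng/well) with activated DNA was incubated with compound on histone-coated wells. Biotinylated NAD+ was added and the reaction ran 60 min at 25 °C. Ribosylation was detected by streptavidin-HRP chemiluminescence, % inhibition was normalised to enzyme-free and uninhibited controls, and IC50 was fitted from % inhibition versus concentration.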

T1 sequence (P09874 whole entry): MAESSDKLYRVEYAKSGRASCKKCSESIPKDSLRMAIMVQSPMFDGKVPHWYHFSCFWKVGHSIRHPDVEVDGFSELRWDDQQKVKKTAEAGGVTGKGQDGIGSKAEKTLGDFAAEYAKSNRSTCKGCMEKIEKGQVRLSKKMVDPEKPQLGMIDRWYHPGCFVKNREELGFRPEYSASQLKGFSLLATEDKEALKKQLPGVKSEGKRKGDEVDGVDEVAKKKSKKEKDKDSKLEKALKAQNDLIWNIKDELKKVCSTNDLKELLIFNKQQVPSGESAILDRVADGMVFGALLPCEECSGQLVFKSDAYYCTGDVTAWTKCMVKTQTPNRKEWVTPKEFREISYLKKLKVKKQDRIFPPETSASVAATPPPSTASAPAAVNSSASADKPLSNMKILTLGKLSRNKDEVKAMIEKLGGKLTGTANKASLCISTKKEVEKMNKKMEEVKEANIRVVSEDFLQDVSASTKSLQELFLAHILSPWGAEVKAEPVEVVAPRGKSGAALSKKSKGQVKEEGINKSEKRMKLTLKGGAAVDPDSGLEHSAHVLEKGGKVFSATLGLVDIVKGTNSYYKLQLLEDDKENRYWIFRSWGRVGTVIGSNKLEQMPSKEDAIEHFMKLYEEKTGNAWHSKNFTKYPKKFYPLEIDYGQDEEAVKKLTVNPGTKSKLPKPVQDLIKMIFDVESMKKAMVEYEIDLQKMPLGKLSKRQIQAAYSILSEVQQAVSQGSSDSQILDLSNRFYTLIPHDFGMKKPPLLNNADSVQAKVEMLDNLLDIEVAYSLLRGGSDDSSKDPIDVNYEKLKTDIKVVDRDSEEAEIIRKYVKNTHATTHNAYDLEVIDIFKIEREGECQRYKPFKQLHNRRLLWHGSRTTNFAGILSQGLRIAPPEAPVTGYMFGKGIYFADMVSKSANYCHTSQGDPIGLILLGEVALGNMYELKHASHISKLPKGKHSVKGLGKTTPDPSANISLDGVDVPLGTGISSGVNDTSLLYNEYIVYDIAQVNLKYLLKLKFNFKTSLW

| Compound | pIC50 |
| --- | --- |
| O=c1[nH]c(C2=C[C@@H](N3CCN(c4ccc(Cl)cc4)CC3)CC2)nc2c1CC1(CC2)CC1 [Compound 38, (S)-2′-(3-(4-(4-chlorophenyl)piperazin-1-yl)cyclopent-1-en-1-yl)-7′,8′-dihydro-3′H-spiro[cyclopropane-1,6′-quinazolin]-4′(5′H)-one] | 6.30 to 9.00 |
| O=c1[nH]c([C@@H]2CC[C@@H](N3CCN(c4ccc(F)cc4)CC3)C2)nc2c1CC1(CC2)CC1 [Compound 152, 2′-((1R,3R)-3-(4-(4-fluorophenyl)piperazin-1-yl)cyclopentyl)-7′,8′-dihydro-3′H-spiro[cyclopropane-1,6′-quinazolin]-4′(5′H)-one] | 5.30 to 6.30 |
| O=c1[nH]c(C2=C[C@H](N3CCN(c4ccc(F)cn4)CC3)CC2)nc2c1CC1(CC2)CC1 [Compound 58, (R)-2′-(3-(4-(5-fluoropyridin-2-yl)piperazin-1-yl)cyclopent-1-en-1-yl)-7′,8′-dihydro-3′H-spiro[cyclopropane-1,6′-quinazolin]-4′(5′H)-one] | 6.30 to 9.00 |
| O=c1[nH]c(CCCN2CCN(c3ccccn3)CC2)nc2c1CC1(CC2)CC1 [Compound 20, 2′-(3-(4-(pyridin-2-yl)piperazin-1-yl)propyl)-7′,8′-dihydro-3′H-spiro[cyclopropane-1,6′-quinazolin]-4′(5′H)-one] | 3.30 to 5.30 |
| O=c1[nH]c(C2=C[C@H](N3CCN(c4cccc(F)c4)CC3)CC2)nc2c1CC1(CC2)CC1 [Compound 78, (R)-2′-(3-(4-(3-fluorophenyl)piperazin-1-yl)cyclopent-1-en-1-yl)-7′,8′-dihydro-3′H-spiro[cyclopropane-1,6′-quinazolin]-4′(5′H)-one] | 6.30 to 9.00 |
| O=c1[nH]c(C2=C[C@H](N3CCN(c4cccc(Cl)c4F)CC3)CC2)nc2c1CC1(CC2)CC1 [Compound 99, (R)-2′-(3-(4-(3-chloro-2-fluorophenyl)piperazin-1-yl)cyclopent-1-en-1-yl)-7′,8′-dihydro-3′H-spiro[cyclopropane-1,6′-quinazolin]-4′(5′H)-one] | 5.30 to 6.30 |
| O=c1[nH]c(CCCN2CCN(c3cccc(Cl)c3)CC2)nc2c1CC1(CC2)CC1 [Compound 18, 2′-(3-(4-(3-chlorophenyl)piperazin-1-yl)propyl)-7′,8′-dihydro-3′H-spiro[cyclopropane-1,6′-quinazolin]-4′(5′H)-one] | 3.30 to 5.30 |
| O=c1[nH]c(C2=C[C@H](N3CCN(c4ccc(F)cc4F)CC3)CC2)nc2c1CC1(CC2)CC1 [Compound 61, (R)-2′-(3-(4-(2,4-difluorophenyl)piperazin-1-yl)cyclopent-1-en-1-yl)-7′,8′-dihydro-3′H-spiro[cyclopropane-1,6′-quinazolin]-4′(5′H)-one] | 6.30 to 9.00 |
| O=c1[nH]c(C2=C[C@H](N3CCC(c4ccc(Cl)cc4)CC3)CC2)nc2c1CC1(CC2)CC1 [Compound 56, (R)-2′-(3-(4-(4-chlorophenyl)piperidin-1-yl)cyclopent-1-en-1-yl)-7′,8′-dihydro-3′H-spiro[cyclopropane-1,6′-quinazolin]-4′(5′H)-one] | 6.30 to 9.00 |
| Cc1ccc(N2CCN([C@H]3C=C(c4nc5c(c(=O)[nH]4)CC4(CC5)CC4)CC3)CC2)cc1Cl [Compound 82, (R)-2′-(3-(4-(3-chloro-4-methylphenyl)piperazin-1-yl)cyclopent-1-en-1-yl)-7′,8′-dihydro-3′H-spiro[cyclopropane-1,6′-quinazolin]-4′(5′H)-one] | 6.30 to 9.00 |
| Cc1ncccc1N1CCN([C@H]2C=C(c3nc4c(c(=O)[nH]3)CC3(CC4)CC3)CC2)CC1 [Compound 129, (R)-2′-(3-(4-(2-methylpyridin-3-yl)piperazin-1-yl)cyclopent-1-en-1-yl)-7′,8′-dihydro-3′H-spiro[cyclopropane-1,6′-quinazolin]-4′(5′H)-one] | 6.30 to 9.00 |
| Cc1ccc(N2CCN([C@H]3C=C(c4nc5c(c(=O)[nH]4)CC4(CC5)CC4)CC3)CC2)cc1F [Compound 84, (R)-2′-(3-(4-(3-fluoro-4-methylphenyl)piperazin-1-yl)cyclopent-1-en-1-yl)-7′,8′-dihydro-3′H-spiro[cyclopropane-1,6′-quinazolin]-4′(5′H)-one] | 6.30 to 9.00 |
| CC1CN(c2ccc(F)cc2)CC(C)N1CCCc1nc2c(c(=O)[nH]1)CC1(CC2)CC1 (stereo not drawn) [Compound 26, 2′-(3-(4-(4-fluorophenyl)-2,6-dimethylpiperazin-1-yl)propyl)-7′,8′-dihydro-3′H-spiro[cyclopropane-1,6′-quinazolin]-4′(5′H)-one] | 3.30 to 5.30 |
| O=c1[nH]c(CCCN2CCN(c3ccc(F)cc3)CC2)nc2c1CC1(CC2)CC1 [Compound 5, 2′-(3-(4-(4-fluorophenyl)piperazin-1-yl)propyl)-7′,8′-dihydro-3′H-spiro[cyclopropane-1,6′-quinazolin]-4′(5′H)-one] | 6.30 to 9.00 |
| O=c1[nH]c(C2=C[C@H](N3CCN(c4ccc(Cl)cc4)CC3)CC2)nc2c1CCCC21CC1 [Compound 41, (R)-2′-(3-(4-(4-chlorophenyl)piperazin-1-yl)cyclopent-1-en-1-yl)-6′,7′-dihydro-3′H-spiro[cyclopropane-1,8′-quinazolin]-4′(5′H)-one] | 3.30 to 5.30 |
| O=c1[nH]c([C@H]2CC[C@H](N3CCN(c4cccc(F)c4)CC3)C2)nc2c1CC1(CC2)CC1 [Compound 154, 2′-((1S,3S)-3-(4-(3-fluorophenyl)piperazin-1-yl)cyclopentyl)-7′,8′-dihydro-3′H-spiro[cyclopropane-1,6′-quinazolin]-4′(5′H)-one] | 6.30 to 9.00 |
| CNC(=O)c1ccc(C2=CCN([C@H]3C=C(c4nc5c(c(=O)[nH]4)CC4(CC5)CC4)CC3)CC2)cc1 [Compound 72, (R)—N-methyl-4-(1-(3-(4′-oxo-4′,5′,7′,8′-tetrahydro-3′H-spiro[cyclopropane-1,6′-quinazolin]-2′-yl)cyclopent-2-en-1-yl)-1,2,3,6-tetrahydropyridin-4-yl)benzamide] | 6.30 to 9.00 |
| O=c1[nH]c(C2=C[C@@H](N3CCC(c4ccc(Cl)cc4)CC3)CC2)nc2c1CC1(CC2)CC1 [Compound 55, (S)-2′-(3-(4-(4-chlorophenyl)piperidin-1-yl)cyclopent-1-en-1-yl)-7′,8′-dihydro-3′H-spiro[cyclopropane-1,6′-quinazolin]-4′(5′H)-one] | 5.30 to 6.30 |
| O=c1[nH]c(CCCN2CC=C(c3ccc(F)cc3)CC2)nc2c1CCC1(CC1)C2 [Compound 16, 2′-(3-(4-(4-fluorophenyl)-5,6-dihydropyridin-1(2H)-yl)propyl)-5′,6′-dihydro-3′H-spiro[cyclopropane-1,7′-quinazolin]-4′(8′H)-one] | 3.30 to 5.30 |
| CNC(=O)c1ccc(N2CCN([C@H]3C=C(c4nc5c(c(=O)[nH]4)CC4(CC5)CC4)CC3)CC2)cc1 [Compound 54, (R)—N-methyl-4-(4-(3-(4′-oxo-4′,5′,7′,8′-tetrahydro-3′H-spiro[cyclopropane-1,6′-quinazolin]-2′-yl)cyclopent-2-en-1-yl)piperazin-1-yl)benzamide] | 6.30 to 9.00 |
| Cc1cc(F)cc(N2CCN([C@H]3C=C(c4nc5c(c(=O)[nH]4)CC4(CC5)CC4)CC3)CC2)c1 [Compound 126, (R)-2′-(3-(4-(3-fluoro-5-methylphenyl)piperazin-1-yl)cyclopent-1-en-1-yl)-7′,8′-dihydro-3′H-spiro[cyclopropane-1,6′-quinazolin]-4′(5′H)-one] | 5.30 to 6.30 |
| O=c1[nH]c(C2=C[C@H](N3CCN(c4ccc(F)cc4)CC3)CC2)nc2c1CCCC21CC1 [Compound 48, (R)-2′-(3-(4-(4-fluorophenyl)piperazin-1-yl)cyclopent-1-en-1-yl)-6′,7′-dihydro-3′H-spiro[cyclopropane-1,8′-quinazolin]-4′(5′H)-one] | 6.30 to 9.00 |
| N#Cc1ccc(N2CCN([C@H]3C=C(c4nc5c(c(=O)[nH]4)CC4(CC5)CC4)CC3)CC2)c(F)c1 [Compound 111, (R)-3-fluoro-4-(4-(3-(4′-oxo-4′,5′,7′,8′-tetrahydro-3′H-spiro[cyclopropane-1,6′-quinazolin]-2′-yl)cyclopent-2-en-1-yl)piperazin-1-yl)benzonitrile] | 6.30 to 9.00 |
| O=c1[nH]c(CCCN2CCN(c3ccc(F)cc3)CC2)nc2c1C1CCC2C1 (stereo not drawn) [Compound 35, 2-(3-(4-(4-fluorophenyl)piperazin-1-yl)propyl)-5,6,7,8-tetrahydro-5,8-methanoquinazolin-4(3H)-one] | 3.30 to 5.30 |
| CNC(=O)c1cccnc1N1CCN([C@H]2C=C(c3nc4c(c(=O)[nH]3)CC3(CC4)CC3)CC2)CC1 [Compound 131, (R)—N-methyl-2-(4-(3-(4′-oxo-4′,5′,7′,8′-tetrahydro-3′H-spiro[cyclopropane-1,6′-quinazolin]-2′-yl)cyclopent-2-en-1-yl)piperazin-1-yl)nicotinamide] | 5.30 to 6.30 |
| O=c1[nH]c(CCCN2CCC(c3ccccc3)CC2)nc2c1CC1(CC2)CC1 [Compound 19, 2′-(3-(4-phenylpiperidin-1-yl)propyl)-7′,8′-dihydro-3′H-spiro[cyclopropane-1,6′-quinazolin]-4′(5′H)-one] | 6.30 to 9.00 |
| O=c1[nH]c(CCCN2CC=C(c3ccc(F)cc3)CC2)nc2c1CC1(CC2)CC1 [Compound 9, 2′-(3-(4-(4-fluorophenyl)-5,6-dihydropyridin-1(2H)-yl)propyl)-7′,8′-dihydro-3′H-spiro[cyclopropane-1,6′-quinazolin]-4′(5′H)-one] | 6.30 to 9.00 |
| O=c1[nH]c(C2=C[C@H](N3CCN(c4ccc(Cl)cc4)CC3)CC2)nc2c1CC1(CC2)CC1 [Compound 37, (R)-2′-(3-(4-(4-chlorophenyl)piperazin-1-yl)cyclopent-1-en-1-yl)-7′,8′-dihydro-3′H-spiro[cyclopropane-1,6′-quinazolin]-4′(5′H)-one] | 6.30 to 9.00 |
| O=c1[nH]c(CCCN2CCN(c3ccncc3)CC2)nc2c1CC1(CC2)CC1 [Compound 29, 2′-(3-(4-(pyridin-4-yl)piperazin-1-yl)propyl)-7′,8′-dihydro-3′H-spiro[cyclopropane-1,6′-quinazolin]-4′(5′H)-one] | 6.30 to 9.00 |
| O=c1[nH]c([C@@H]2CC[C@H](N3CCN(c4ccc(F)cc4)CC3)C2)nc2c1CC1(CC2)CC1 [Compound 150, 2′-((1R,3S)-3-(4-(4-fluorophenyl)piperazin-1-yl)cyclopentyl)-7′,8′-dihydro-3′H-spiro[cyclopropane-1,6′-quinazolin]-4′(5′H)-one] | 6.30 to 9.00 |
